From the RepoRT retention time repository (doi:10.1021/acs.analchem.2c02893)

assay: RP, Thermo Scientific Acclaim RSLC 120 C18, 100 × 2.1 mm, 2.2 µm, 30 °C, 0.2 mL/min, estimated dead time 1.1 min; A: 90% water + 10% methanol + 0.01% formic acid + 5 mM ammonium formate, pH 3.61; B: methanol + 0.01% formic acid + 5 mM ammonium formate, pH 3.61; gradient (min/%B) 0/1 1/1 2/39 13/99.9 15/99.9 15.1/1 20.1/1; conditions: stereoisomer not certain

Compound	LC retention time
CNCC(O)c1ccc(O)c(O)c1 (stereo unspecified) [Epinephrine]	1.38 min
CCOC(=O)C=C1SC(N2CCCCC2)C(=O)N1CC (stereo unspecified) [Piprozolin]	9.85 min
CC(C)N(C(=O)C(=O)O)c1ccc(F)cc1 [Flufenacet-OXA]	5.49 min
CCCCCn1nc(C(=O)NC(C)(C)c2ccccc2)c2ccccc21 [Cumyl-PINACA]	12.5 min
Cc1c(C(=O)NN2CCCCC2)nn(-c2ccc(Cl)cc2Cl)c1-c1ccc(Cl)cc1 [Rimonabant]	12.8 min
NC1CC1c1ccccc1 (stereo unspecified) [Tranylcypromine]	4.27 min
CCCCCCCCCCCCCCN(C)C [N,N-Dimethyltetradecylamine]	11.8 min
O=c1[nH]c2ccccc2n1C1CCN(CCCC(c2ccc(F)cc2)c2ccc(F)cc2)CC1 [Pimozide]	8.73 min
NC(=O)N1c2ccccc2C(O)C(O)c2ccccc21 (stereo unspecified) [Carbamazepine-10.11-dihydro-10.11 dihydroxy]	5.79 min
CCCn1c(C)c(C(=O)c2cccc3ccccc23)c2ccccc21 [JWH-015]	11.5 min
O=C1Nc2ccc(Cl)cc2C(C#CC2CC2)(C(F)(F)F)O1 (stereo unspecified) [Efavirenz]	10.7 min
O=P1(N(CCCl)CCCl)NCCCO1 (stereo unspecified) [Cyclophosphamide]	6.24 min
CN(C)S(=O)(=O)N(SC(F)(Cl)Cl)c1ccccc1 [Dichlofluanid]	10 min
CC(O)CCCn1cc(C(=O)c2cccc3ccccc23)c2ccccc21 (stereo unspecified) [JWH-018-M-N-4-OH-Pentyl]	10.1 min
COC(=O)Nc1nc2ccc(C(=O)c3ccccc3)cc2[nH]1 [Mebendazole]	8.25 min
CON=C(Cc1cccnc1)c1ccc(Cl)cc1Cl [Pyrifenox]	10.1 min
CCCCCn1cc(C(=O)Cc2ccccc2OC)c2ccccc21 [JWH-250]	11.8 min
CCOP(=O)(Sc1ccccc1)Sc1ccccc1 [Edifenphos]	10.8 min
O=S(=O)(c1ccc(O)cc1)c1ccc(O)cc1 [Bisphenol S]	5.35 min
CCCc1nc(C)c2c(=O)[nH]c(-c3cc(S(=O)(=O)N4CCN(CCO)CC4)ccc3OCC)nn12 [Vardenafil-Hydroxy]	8.05 min
CN(C)CCN(Cc1cccs1)c1ccccc1 [Methaphenilene]	6.32 min
CCCCNC(=O)NS(=O)(=O)c1ccc(N)cc1 [Carbutamide]	5.36 min

Compound	LC retention time
NS(=O)(=O)Cc1noc2ccccc12 [Zonisamide]	4.53 min
Cc1onc(-c2ccccc2)c1-c1ccc(S(N)(=O)=O)cc1 [Valdecoxib]	7.37 min
NC(N)=NCC1COc2ccccc2O1 (stereo unspecified) [Guanoxan]	4.57 min
NS(=O)(=O)c1cc2c(cc1Cl)NC(CSCc1ccccc1)=NS2(=O)=O [Benzthiazide]	6.81 min
CCCCOCCOCCSC#N [Lethane 384]	8.12 min
O=C(CCCN1CC=C(n2c(=O)[nH]c3ccccc32)CC1)c1ccc(F)cc1 [Droperidol]	6.16 min
CN(C)CCCN1c2ccccc2Sc2ccccc21 [Promazine]	7.69 min
COc1ccc(CCN)cc1OC [DMPEA]	3.53 min
O=C(NC(=O)c1c(F)cccc1F)Nc1ccc(CON=C(c2ccc(Cl)cc2)C2CC2)cc1 [Flucycloxuron]	12.8 min
COC(=O)C1=COC(C)C2CN3CCc4c([nH]c5ccccc45)C3CC12 (stereo unspecified) [Raubasine]	6.66 min
CN(C)CCCN1c2ccccc2Sc2cccnc21 [Prothipendyl]	7.21 min
CCCCn1cc(C(=O)c2cccc3ccccc23)c2c(O)cccc21 [JWH-073-M-4-OH-Ind]	12 min
CCCCCn1cc(C(=O)c2ccc(Br)c3ccccc23)c2ccccc21 [JWH-387]	13.4 min
CCOP(=O)(OCC)Oc1cc(C)nc(C(C)C)n1 [Diazinon-O-analog]	8.65 min
Nc1nc2c(ncn2CCC(CO)CO)c(=O)[nH]1 [Penciclovir]	2.98 min
Cc1nc2n(c(=O)c1CCN1CCC(c3noc4cc(F)ccc34)CC1)CCCC2 [Risperidone]	5.88 min
CC12CCC3c4cc(O)c(O)cc4CCC3C1CCC2=O (stereo unspecified)	8.56 min
CC(C(=O)c1ccccc1)N1CCCC1 (stereo not drawn) [PPP- alpha]	4.01 min
CC(C)N(CCc1c[nH]c2ccccc12)C(C)C [DiPT]	4.87 min
CCS(=O)(=O)CCn1c([N+](=O)[O-])cnc1C [Tinidazole]	3.86 min
CCCOCCN(C(=O)CCl)c1c(CC)cccc1CC [Pretilachlor]	11.8 min
CCCCCCCCCCCC(=O)NCC(C)O (stereo unspecified) [Lauric isopropanolamide]	12.1 min

Compound	LC retention time
CCCCOC(=O)COc1ccc(Cl)cc1Cl [2.4-D-butylester]	11.9 min
CCC(=O)OC(OP(=O)(CCCCc1ccccc1)CC(=O)N1CC(C2CCCCC2)CC1C(=O)O)C(C)C (stereo unspecified) [Fosinopril]	12.4 min
CNC(C)C(=O)c1ccc(Cl)cc1 (stereo unspecified) [Clephedrone (4-Chloromethcathinone)]	4.91 min
Cc1cc2n[nH]nc2cc1C [Benzotriazole-5 6-di-Me]	6.76 min
Cc1ccc2n[nH]nc2c1 [Benzotriazole- 5-Me]	5.83 min
CN(C)C(CCOc1cccc2ccccc12)c1ccccc1 (stereo unspecified) [Dapoxetine]	8.34 min
CCOP(=O)(NC(C)C)Oc1ccc(S(C)(=O)=O)c(C)c1 (stereo unspecified) [Fenamiphos - sulfone]	7.21 min
CCCNC1CCc2nc(N)sc2C1 (stereo unspecified) [Pramipexole]	2.64 min
CC(C)(C)C(NC(=O)c1cn(CCCCCF)c2ccccc12)C(N)=O (stereo unspecified) [ADBICA-5F]	9.72 min
CC1CC2C3CCC4=CC(=O)C=CC4(C)C3(Cl)C(O)CC2(C)C1(OC(=O)c1ccco1)C(=O)CCl (stereo unspecified) [Mometasone fuorate]	10.6 min
O=c1[nH]c2c(c(=O)n1C1CCCCC1)CCC2 [Lenacil]	8.27 min
CSc1nc(NC2CC2)nc(NC(C)(C)C)n1 [Irgarol]	10.5 min
CC(CN(C)C)CN1c2ccccc2S(=O)(=O)c2ccccc21 (stereo unspecified) [Oxomemazine]	5.34 min
O=C1CC2(CCCC2)CC(=O)N1CCCCN1CCN(c2ncccn2)CC1 [Buspirone]	5.78 min
COc1ccc(C(O)(c2cncnc2)C2CC2)cc1 (stereo unspecified) [Ancymidol]	7.15 min
CCc1c(C)[nH]c2c1C(=O)C(CN1CCOCC1)CC2 (stereo unspecified) [Molindone]	4.89 min
C#CCN1C(=O)COc2cc(F)c(N3C(=O)C4=C(CCCC4)C3=O)cc21 [Flumioxazin]	8.73 min
COc1cc(O)c(C(=O)c2ccccc2)cc1S(=O)(=O)O [Benzophenone-4]	6.19 min
Cc1nnc(NS(=O)(=O)c2ccc(N)cc2)s1 [Sulfamethizole]	4.21 min
CCN(Cc1ccncc1)C(=O)C(CO)c1ccccc1 (stereo unspecified) [Tropicamide]	6.03 min
O=P1(NCCCl)OCCCN1CCCl (stereo unspecified) [Ifosfamid]	5.89 min
CCNc1nc(NC(C)(C)C)nc(OC)n1 [Terbumeton]	9.16 min
